{"source": "patent US20100267803A1", "about": "“Regulators Of Fat Metabolism As Anti-Cancer Targets” (The Research Foundation of State University Of New York, priority 2008, published 2010)", "key": {"[1]": {"test_system": "NR1D1 mRNA", "experiment": "qRT-PCR of NR1D1 mRNA in BT474 cells", "assay_type": "cell-based, human", "conditions": "shRNA 48 h, qRT-PCR", "protocol": "(§1) FIG. 2 NR1D1 and PBP are necessary for survival of ERBB2-positive cells. (a) PBP and NR1D1 mRNA levels of BT474 cells transfected with luciferase (control), PBP or NR1D1 shRNAs for 48 h, analyzed by qRT-PCRs. (Error bars are s.d from 3 experiments; ***P<0.003, **P=0.01, *P=0.02). (b) BMAL1 luciferase reporter activity of BT474 cells transfected with either empty vector (control), or NR1D1 shRNA for 48 h.\n(§2) FIG. 3 PPAR. inhibition impacts NR1D1 expression and ERBB2-positive cells viability. (a) Cell counts of BT474, MDA-MB-361, MCF-7 and HMEC cells treated with vehicle, 10 and 20 μM of the PPAR. antagonist GW9662 for 72 hrs. Results represented as % of control (vehicle). (Error bars are s.d from 3 individual experiments; *P>0.2, **P<0.05, ***P<0.002). (b) BT474 cells treated with vehicle or 20 μM of GW9662 for 48 h were immuno-stained for cleaved Caspase-3. (c) Quantification of Caspase-3 signal. (Error bars are s.d from 3 individual experiments; ***P=0.002). (d) aP2 and NR1D1 mRNA levels of BT474 cells treated with vehicle (control) and 20 μM of GW9662 for 48 h, analyzed by qRT-PCRs. […]"}, "[2]": {"test_system": "BMAL1 reporter", "experiment": "BMAL1 luciferase reporter assay in BT474 cells", "assay_type": "cell-based, human", "conditions": "shRNA 48 h, vs empty vector", "protocol": "as §1\nas §2, with “(Error bars are s.d from 3 individual experiments; ***P=0.002).” left out\nReporter assays. […] Cells were lysed 48 h post-transfection and firefly (reporter) and renilla luciferase activities were measured using the Dual-Luciferase Reporter Assay kit (Promega) on a BioTek Synergy HT reader. The ratio of Firefly to Renilla luciferase activity was calculated and presented as percentage of control."}}}
{"substance": "NR1D1 shRNA: shRNA, mature sequence GGCATGGTGTTACTGTGTA (shRNA)", "values": [{"measurement": "decrease in mRNA levels of target (NR1D1)", "setting": "[1]", "value": "> 60", "unit": "%"}, {"measurement": "up-regulation of BMAL1 reporter", "setting": "[2]", "value": 2.5, "unit": "fold"}]}
